These results are taken from article PMC3589280 (Channels, 2013).

The target in assay [1] is T1, rBASIC (rat bile acid-sensitive ion channel) (Rattus norvegicus, UniProt Q9R0W5).
T1 sequence (Q9R0W5 1-495): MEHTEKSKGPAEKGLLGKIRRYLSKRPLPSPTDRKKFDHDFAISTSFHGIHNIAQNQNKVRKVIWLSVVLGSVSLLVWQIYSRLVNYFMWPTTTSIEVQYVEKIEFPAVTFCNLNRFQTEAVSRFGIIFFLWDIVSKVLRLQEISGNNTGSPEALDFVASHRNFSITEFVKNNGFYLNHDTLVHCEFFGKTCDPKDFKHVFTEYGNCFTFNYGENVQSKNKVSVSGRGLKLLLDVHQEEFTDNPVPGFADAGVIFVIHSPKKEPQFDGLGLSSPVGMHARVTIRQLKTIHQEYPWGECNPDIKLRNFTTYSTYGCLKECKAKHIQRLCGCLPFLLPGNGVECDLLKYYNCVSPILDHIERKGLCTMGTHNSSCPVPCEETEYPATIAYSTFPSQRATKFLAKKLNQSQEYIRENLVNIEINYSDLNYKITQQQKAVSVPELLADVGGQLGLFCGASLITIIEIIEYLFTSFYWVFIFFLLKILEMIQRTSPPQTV
Nature of the assay: oocyte current recording, co-application. The class given is cell-based. To be noted: 0.5 mM CDCA co-applied with 1.0 mM UDCA; CDCA not tested alone here.

Assay [2] deals with T1, rBASIC (rat bile acid-sensitive ion channel). The experiment in a line: oocyte current recording, concentration-response, Hill fit. Format: cell-based.

In the case of `C[C@H](CCC(=O)O)[C@H]1CC[C@H]2[C@@H]3[C@H](O)C[C@@H]4C[C@H](O)CC[C@]4(C)[C@H]3CC[C@]12C` [CDCA], the “oocyte current recording, co-application” value in assay [1] was “CDCA and UDCA synergistically activate rBASIC”.

In assay [2], `C[C@H](CCC(=O)O)[C@H]1CC[C@H]2[C@@H]3C[C@H](O)[C@@H]4C[C@H](O)CC[C@]4(C)[C@H]3CC[C@]12C` [HDCA] had an EC50 of 2100 ± 40 µM.

`C[C@H](CCC(=O)O)[C@H]1CC[C@H]2[C@@H]3[C@@H](O)C[C@@H]4C[C@H](O)CC[C@]4(C)[C@H]3CC[C@]12C` [UDCA] registered an EC50 in assay [2] of 2500 ± 40 µM.

Usually EC50 stands for the concentration giving half of the maximal effect. Low values mean higher potency in that assay, high ones lower potency in that assay.
